Source: US20200163854A1, “LIFE-EXTENDING AGENT, ANTI-AGING AGENT, COSMETIC, AND FOOD/BEVERAGE COMPOSITION” (KYOTO UNIVERSITY, priority 2017, published 2020)
Read-outs that look alike come from different tables or passages of the source.

Tests used:
[1] = tested on: Drosophila flies, premature aging strain (sod1[n1] mutants), male; details: vs control medium
Procedure: Mutants of adult Drosophila flies (male) containing Cu/Zn-SOD with reduced activity due to amino acid substitution (sod1[n1]) were bred in a plastic tube having a diameter of 25 mm, and fed with a simple medium (instant medium) for Drosophila that contains D-proline (D-Pro) at a concentration of 20, 60, 200, or 400 μg/ml, or L-proline (L-Pro) at a concentration of 400 μg/ml, followed by measuring the life span of the flies. […] For the control, a simple medium to which no D-Pro or L-Pro was added was used.
Mutants of adult Drosophila flies (male) containing Cu/Zn-SOD with reduced activity due to amino acid substitution (sod1[n1]) were bred in a plastic tube having a diameter of 25 mm, and fed with a simple medium (instant medium) for Drosophila that contains D-proline (D-Pro) at a concentration of 400 μg/ml, or D-aspartic acid (D-Asp) at a concentration of 60, 200, or 400 μg/ml, followed by measuring the life span of the flies. […] For the control, a simple medium to which no D-Pro or D-Asp was added was used.
Mutants of adult Drosophila flies (male) containing Cu/Zn-SOD with reduced activity due to amino acid substitution (sod1[n1]) were bred in a plastic tube having a diameter of 25 mm, and fed with a simple medium (instant medium) for Drosophila that contains D-proline (D-Pro) at a concentration of 400 μg/ml, or D-hydroxyproline (D-HP) at a concentration of 60, 200, or 400 μg/ml, followed by measuring the life span of the flies. […] For the control, a simple medium to which no D-Pro or D-HP was added was used.

[2] = tested on: Menin gene and Bach2 gene mRNA; details: 0.2 mg/ml in water, free intake, Day 495; compared to control group or L-proline group
Procedure: (§1) After euthanasia on Day 495, the spleen was removed and ground through a 0.45-μM strainer to prepare a suspension of spleen-derived cells (FIG. 4). After centrifugation at 1000 g for 5 minutes, the supernatant was removed by suction. Thereafter, 2 ml of ammonium chloride hemolytic agent (distilled water containing 8.99 mg/ml of NH4Cl, 1 mg/ml of KHCO3, and 37 μg/ml of EDTA4Na) was added to the cell pellets, followed by suspension. The resulting product was then allowed to stand at room temperature for 2 minutes. Subsequently, 10 ml of RPMI 1640 medium with 10% FBS was added thereto, the mixture was centrifuged at 1000 g for 5 minutes, and the supernatant was removed by suction. Then, 5 ml of RPMI 1640 medium with 10% FBS was added thereto to prepare a cell suspension (spleen-derived mononuclear cells).
Total RNA was extracted from 1×10^5 spleen-derived mononuclear cells of Example 4 using an RNeasy Mini Kit, produced by Qiagen. […] The mRNA levels of the Menin gene and the Bach2 gene were quantified as a ratio relative to the β-actin gene mRNA level, and calculated taking the value of the spleen-derived mononuclear cells of the control group as 1.

[3] = tested on: spleen-derived mononuclear cells (T cells with senescence marker); details: 0.2 mg/ml in water, free intake, Day 495; compared to control group or L-proline group
Procedure: as §1
After placing 1×10^6 spleen-derived mononuclear cells of Example 4 into a 1.5-ml Eppendorf tube, centrifugation was performed at 900 g for 5 minutes. Then, the supernatant was removed by suction, and 50 μl of FACS buffer (PBS(−) in which 0.5% BSA, 0.01% NaNO, and 1 mM EDTA were dissolved) was added thereto. Thereafter, incubation was performed on ice for 20 minutes with an FITC-labeled mouse anti-CD27 antibody (NOVUS; NPB-1-44021) and a PE-labeled mouse anti-CD62L antibody (ABGENT; ATB10190). […]

[4] = mixed with feed at 60, 200 or 400 μg/ml

Structure (SMILES)	life span of aging-promoting adult Drosophila flies ([1]; mixed with feed at 400 μg/ml)	life span of aging-promoting adult Drosophila flies [1, 4]	mRNA expression of the Bach2 gene (ratio to β-actin, control = 1) [2]	mRNA expression of the Menin gene (ratio to β-actin, control = 1) [2]	number of T cells with a senescence marker of CD62-negative or CD27-negative [3]	life span of aging-promoting adult Drosophila flies ([1]; mixed with feed at 20, 60, 200 or 400 μg/ml)
N[C@H](CC(=O)O)C(=O)O [D-aspartic acid]	extends the life span	extended the life span of Drosophila flies in a concentration-dependent manner				
O=C(O)[C@H]1C[C@H](O)CN1 [D-hydroxyproline]	extends the life span	extended the life span of Drosophila flies in a concentration-dependent manner				
O=C(O)[C@H]1CCCN1 [D-proline]	significantly higher effect		higher mRNA expression	higher mRNA expression	significantly reduced number	dose-dependently extends the life span
O=C(O)[C@@H]1CCCN1 [L-proline, reference compound]	no effect					
